Experimental data taken from patent US7109193B2, “Tricyclic diazepines tocolytic oxytocin receptor antagonists” (Wyeth, priority 2001, dated 2006).

Molecular target: T1, human vasopressin V2 receptor subtype (Homo sapiens, UniProt P30518)
T1 construct: host or cells: CHO cells (pZeoSV vector)
Assay: Vasopressin binding in Chinese Hamster Ovary cell membranes expressing human vasopressin V2 subtype receptors
Conditions: 100 nM, CHO cell membranes, [3H]arginine vasopressin, values without parentheses
Description: Vasopressin Binding in Chinese Hamster Ovary Cell Membranes Expressing Human Vasopressin V2 Subtype Receptors
Chinese Hamster Ovary (CHO) cells stably transfected with the human V2 subtype receptors were obtained from M. Thibonnier, Case Western Reserve University School of Medicine, Cleveland, Ohio.
A. Passaging and Amplification of Cells:
The trypsin is removed by aspiration and the cells dislodged by tapping. Cell Culture medium (e.g. 30 mL for 1:30 split) is immediately added and mixed well to inactivate trypsin. 1 mL of detached cells is added to new culture flasks containing fresh Cell Culture medium (e.g. into 25 mL per T-150 flask), and mixed gently. The cells are incubated at 37° C. in 5% CO2. The medium is changed at 3 to 4 day interval (or as appropriate). […] All steps are done under sterile conditions. B. Membrane Preparation: The cells are washed twice gently with Hank's Balanced Salt solution (e.g. use 10 mL per T-150 flask). […] The contents are transferred to centrifuge tubes (50 mL) kept in ice bath. All subsequent steps are done at 4° C. The tubes are centrifuged at 300×g for 15 min (1380 rpm on SORVAL, Model RT6000D, using the rotor for 50 mL tubes). The supernatant is discarded and the cells suspended in homogenizing buffer (10 mM Tris-HCl containing 0.25 M sucrose and 1 mM EDTA, pH 7.4) ensuring that the volume of the buffer is about ten times the volume of the cell pellet. The cells are pooled into a centrifuge tube (50 mL) and homogenized with a Polytron at setting 6 for 10 sec. The homogenate is transferred into a Potter-Elvjehm homogenizer and homogenized with 3 strokes. The homogenate is centrifuged at 1500×g for 60 min at 4° C. (3100 rpm using SORVAL, model RT6000D, using the rotor for 50 mL tubes). The pellet is discarded. The supernatant is centrifuged at 100,000×g for 60 min. at 4° C. (Beckman L8-80M ultracentrifuge; spin at 37,500 rpm with rotor type 70 Ti for 50 mL tubes; 38,000 rpm with type 80Ti for 15 mL tubes; or 35,800 rpm with rotor type 45Ti). The supernantant is discarded and the pellet suspended in 3 to 4 mL of Tris buffer (50 mM TRIS-HCl, pH 7.4). The protein content is estimated by the Bradford or Lowry method. The volume of the membrane suspension is adjusted with the membrane buffer (50 mM Tris-HCl containing 0.1% BSA and 0.1 mM PMSF) to give 3.0 mg/mL (or as appropriate) of protein. The membranes are aliquoted and stored at −70° C. C. Radioligand Binding Assay: In wells of a 96-well format microtiter plate, is added 90, 110 or 130 μL (to make up a final volume of 200 μL) of assay buffer containing 50 mM of Tris-HCl (pH 7.4), […], 1 mg % aprotinin, 1 mg % leupeptin, 2 mg % 1,10-phenanthroline, 10 mg % trypsin inhibitor, and 0.1 mM PMSF. The inhibitors are added on the day of the experiment. The components are mixed at room temperature, and then kept in ice bath following adjustment of the pH to 7.4. […] For vasopressin and other peptide ligands 20 μL of 50% DMSO is added and the assay buffer volume is adjusted accordingly. To each well is added 50 μL of frozen membrane suspension thawed immediately prior to use and diluted in assay buffer to the required concentration (equivalent to 25 to 50 μg of protein/well as needed). 20 μL of 8 nM [^3H]arginine vasopressin ligand in the assay buffer, prepared just before use is added and incubated at room temperature for 60 min. shaking the plate on a mechanical shaker for the first 15 min. The incubation is stopped by rapid filtration of the plate contents followed by wash with ice-cold buffer (50 mM Tris-HCl, pH 7.4) using a cell harvester (Tomtek and Printed filtermat-B filter paper). The filter paper is thoroughly dried (7–12 min. in a microwave oven) and impregnated with MeltiLex B/H melt-on scintillation wax sheets and the radioactivity counted in a betaplate scintillation counter.

T1 sequence (P30518 whole entry): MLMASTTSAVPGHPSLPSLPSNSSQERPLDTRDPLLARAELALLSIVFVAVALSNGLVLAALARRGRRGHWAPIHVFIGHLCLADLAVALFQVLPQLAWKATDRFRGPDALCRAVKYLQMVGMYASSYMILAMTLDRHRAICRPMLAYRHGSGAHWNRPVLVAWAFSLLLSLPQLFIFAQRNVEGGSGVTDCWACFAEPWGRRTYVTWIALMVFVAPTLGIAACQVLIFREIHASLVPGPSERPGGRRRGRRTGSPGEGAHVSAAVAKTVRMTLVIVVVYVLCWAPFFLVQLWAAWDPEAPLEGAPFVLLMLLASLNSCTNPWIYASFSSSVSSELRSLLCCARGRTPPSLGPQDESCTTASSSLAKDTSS

Row | SMILES | inhibition at 0.1 µM | V2 % inhibition @ 100 nM
1 | COc1cccc(-c2cc(OC)c(C(=O)N3Cc4ccc(C(=O)N5CCN(CCN6CCOCC6)CC5)n4Cc4ccccc43)cc2Cl)c1 [Example 212, {10-[(6-Chloro-3,3′-dimethoxy[1,1′-biphenyl]-4-yl)carbonyl]-10,11-dihydro-5H-pyrrolo[2,1-c][1,4]benzodiazepin-3-yl}{4-[2-(4-morpholinyl)ethyl]-1-piperazinyi}methanone] | – | 43%
2 | Cc1ccccc1-c1ccc(C(=O)N2Cc3ccc(C(=O)N4CCC[C@H]4CN4CCCC4)n3Cc3ccccc32)cc1C [Example 260, {10-[(2,2′-Dimethyl[1,1′-biphenyl]-4-yl)carbonyl]-10,11-dihydro-5H-pyrrolo[2,1-c][1,4]benzodiazepin-3-yl}[(2S)-2-(1-pyrrolidinylmethyl)pyrrolidinyl]methanone] | – | 20%
3 | COc1cc(-c2ccccc2C)c(Cl)cc1C(=O)N1Cc2ccc(C(=O)N3CCC[C@H]3CN3CCCC3)n2Cc2ccccc21 [Example 267, {10-[(6-Chloro-3-methoxy-2′-methyl[1,1′-biphenyl]-4-yl)carbonyl]-10,11-dihydro-5H-pyrrolo[2,1-c][1,4]benzodiazepin-3-yl}[(2S)-2-(1-pyrrolidinylmethyl)pyrrolidinyl]methanone] | – | 24%
4 | COc1cc(C(=O)N2Cc3ccc(C(=O)N4CCC[C@H]4CN4CCCC4)n3Cc3ccccc32)ccc1-c1cccc2ccccc12 [Example 262, {10-[3-Methoxy-4-(1-naphthyl)benzoyl]-10,11-dihydro-5H-pyrrolo[2,1-c][1,4]benzodiazepin-3-yl}[(2S)-2-(1-pyrrolidinylmethyl)pyrrolidinyl]methanone] | – | 4%
5 | Cc1cccc(N2CCN(C(=O)c3ccc4n3Cc3ccccc3N(C(=O)c3ccc(-c5ccccc5C(F)(F)F)c(C)c3)C4)CC2C)c1 (stereo not drawn) [Example 5, [3-Methyl-4-(3-methyl-phenyl)-piperazin-1-yl]-[10-(2-methyl-2′-trifluoromethyl-[1,1′-biphenyl]-4-yl)carbonyl]-10,11-dihydro-5H-pyrrolo[2,1-c][1,4]benzodiazepin-3-yl-methanone] | – | 3%
6 | COc1ccccc1-c1ccc(C(=O)N2Cc3ccc(C(=O)N4CC[C@@H](N(C)C)C4)n3Cc3ccccc32)cc1OC [Example 282, {10-[(2,2′-Dimethoxy[1,1′-biphenyl]-4-yl)carbonyl]-10,11-dihydro-5H-pyrrolo[2,1-c][1,4]benzodiazepin-3-yl][(3R)-3-(dimethylamino)pyrrolidinyl]methanone] | – | −17%
7 | Cc1cc(C(=O)N2Cc3ccc(C(=O)NCCCN(C)C)n3Cc3ccccc32)ccc1-c1ccccc1C(F)(F)F [Example 84, N-[3-(Dimethylamino)propyl]-10-{[2-methyl-2′-(trifluoromethyl)[1,1′-biphenyl]-4-yl]carbonyl}-10,11-dihydro-5H-pyrrolo[2,1-c][1 .4]benzodiazepine-3-carboxamide] | – | 11%
8 | COc1cccc(-c2ccc(C(=O)N3Cc4ccc(C(=O)N5CC[C@@H](N(C)C)C5)n4Cc4ccccc43)cc2OC)c1 [Example 283, {10-[(2,3′-Dimethoxy[1,1′-biphenyl]-4-yl)carbonyl]-10,11-dihydro-5H-pyrrolo[2,1-c][1,4]benzodiazepin-3-yl}[(3R)-3-(dimethylamino)pyrrolidinyl]methanone] | – | 29%
9 | Cc1ccccc1-c1ccc(C(=O)N2Cc3ccc(C(=O)N4CC[C@@H](N(C)C)C4)n3Cc3ccccc32)cc1 [Example 280, [(3R)-3-(Dimethylamino)pyrrolidinyl]{10-[(2′-methyl[1,1′-biphenyl]-4-yl)carbonyl]-10,11-dihydro-5H-pyrrolo[2,1-c][1,4]benzodiazepin-3-yl}methanone] | – | 6%

Second part, led by results:

Row | inhibition at 0.1 µM | SMILES | V2 % inhibition @ 100 nM
10 | 29% | Cc1ccccc1-c1ccc(C(=O)N2Cc3ccc(C(=O)N4CCC(N5CCCC5)CC4)n3Cc3ccccc32)cc1C [Example 138, {10-[(2,2′-Dimethyl[1,1′-biphenyl]-4-yl)carbonyl]-10,11-dihydro-5H-pyrrolo[2,1-c][1,4]benzodiazepin-3-yl}[4-(1-pyrrolidinyl)-1-piperidinyl]methanone] | –
11 | 8% | COc1cccc(-c2ccc(C(=O)N3Cc4ccc(C(=O)NCCCn5ccnc5)n4Cc4ccccc43)cc2C)c1 [Example 125, N-[3-(1H-Imidazol-1-yl)propyl]-10-[(3′-methoxy-2-methyl[1,1′-biphenyl]-4-yl)carbonyl]-10,11-dihydro-5H-pyrrolo[2,1-c][1,4]benzodiazepine-3-carboxamide] | –
12 | 20% | O=C(c1ccc2n1Cc1ccccc1N(C(=O)c1ccc(-c3cccc4ccccc34)cc1Cl)C2)N1CCC(N2CCCC2)CC1 [Example 147, {10-[2-Chloro-4-(1-naphthyl)benzoyl]-10,11-dihydro-5H-pyrrolo[2,1-c][1,4]benzodiazepin-3-yl}[4-(1-pyrrolidinyl)-1-piperidinyl]methanone] | –
13 | 3% | Cc1ccccc1-c1ccc(C(=O)N2Cc3ccc(C(=O)NCCCn4ccnc4)n3Cc3ccccc32)cc1 [Example 127, N-[3-(1H-Imidazol-1-yl)propyl]-10-[(2′-methyl[1,1′-biphenyl]-4-yl)carbonyl]-10,11-dihydro-5H-pyrrolo[2,1-c][1,4]benzodiazepine-3-carboxamide] | –
14 | 5% | COc1cccc(-c2cc(OC)c(C(=O)N3Cc4ccc(C(=O)NCCCn5ccnc5)n4Cc4ccccc43)cc2Cl)c1 [Example 130, 10-[(6-Chloro-3,3′-dimethoxy[1,1′-biphenyl]-4-yl)carbonyl]-N-[3-(1H-imidazol-1-yl)propyl]-10,11-dihydro-5H-pyrrolo[2,1-c][1,4]benzodiazepine-3-carboxamide] | –
15 | 12% | COc1cccc(-c2ccc(C(=O)N3Cc4ccc(C(=O)N5CCC(N6CCCC6)CC5)n4Cc4ccccc43)cc2C)c1 [Example 139, {10-[(3′-Methoxy-2-methyl[1,1′-biphenyl]-4-yl)carbonyl]-10,11-dihydro-5H-pyrrolo[2,1-c][1,4]benzodiazepin-3-yl}[4-(1-pyrrolidinyl)-1-piperidinyl]methanone] | –
16 | 16% | O=C(NCCCn1ccnc1)c1ccc2n1Cc1ccccc1N(C(=O)c1ccc(-c3cccc4ccccc34)cc1Cl)C2 [Example 134, 10-[2-Chloro-4-(1-naphthyl)benzoyl]-N-[3-(1H-imidazol-1-yl)propyl]-10,11-dihydro-5H-pyrrolo[2,1-c][1,4]benzodiazepine-3-carboxamide] | –
17 | 9% | Cc1ccccc1-c1ccc(C(=O)N2Cc3ccc(C(=O)N4CCC(N5CCCCC5)CC4)n3Cc3ccccc32)cc1C [Example 113, {10-[(2-Methyl-2′-methyl[1,1′-biphenyl]-4-yl)carbonyl]-10,11-dihydro-5H-pyrrolo[2,1-c][1,4]benzodiazepin-3-yl}[4-(1-piperidinyl)-1-piperidinyl]methanone] | –
18 | 8% | Cc1ccccc1-c1ccc(C(=O)N2Cc3ccc(C(=O)N4CCC(N5CCCC5)CC4)n3Cc3ccccc32)cc1 [Example 141, {10-[(2′-Methyl[1,1′-biphenyl]-4-yl)carbonyl]-10,11-dihydro-5H-pyrrolo[2,1-c][1,4]benzodiazepin-3-yl}[4-(1-pyrrolidinyl)-1-piperidinyl]methanone] | –
